Experimental data: US20240239801A1, “PYRIMIDO[5,4,D]PYRIMIDINE COMPOUNDS, COMPOSITIONS COMPRISING THEM AND USES THEREOF” (Université de Montréal, priority 2021, published 2024)

Legend:
[1] = system: HCT116 pERK; test: Phospho-ERK inhibition, AlphaLISA SureFire Ultra p-ERK 1/2; format: cell-based, human; settings: for IC50: 1 h treatment; for HCT116 (Ymin %): lowest value of the pERK IC50 curve
In short: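 Cells plated in RPMI-1640 with 5% FBS, held overnight, then exposed 1 h to ten-point compound dilutions (top 30 or 10 μM down to 0.33 nM; 0.5% DMSO). Lysates read for p-ERK1/2 (Thr202/Tyr204) by AlphaLISA; % inhibition relative to DMSO after subtracting a 1 μM trametinib background; IC50 from four-parameter fit.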

[2] = molecular target: T1, BRAF (Homo sapiens, UniProt P15056); test: BRAF kinase activity assay (ADP-Glo); format: biochemical
T1 construct: GST; purchased Millipore Sigma B4062-10UG
Procedure: (§1) Compound preparation: solid samples of each substances in 1dram vials were suspended in DMSO (Fisher Scientific) at a stock concentration of 20 mM. Stocks were kept at −20° C. and protected from light. If solubility of the compound at 20 mM appeared to be an issue, the initial concentration of the DMSO stock was changed to 10 mM or 5 mM.
(§2) In vitro enzymatic reactions were used for evaluating compounds intrinsic activity against BRAF, CRAF and ARAF. For BRAF and CRAF, 0.375 nM of purified GST-tagged kinases (cat #B4062-10UG and cat #R1656-10UG respectively from Millipore Sigma) were incubated with 75 nM of kinase-dead MEK1 substrate (cat #40075; BPS Bioscience) in the presence of 10 μM of Ultrapure ATP (cat #V9102; Promega; part V915A) with and without the test compound in a buffer containing 50 mM HEPES pH 7.5, 10 mM MgCl2, 1 mM EDTA, 0.01% Brij-35 and 2 mM DTT. Separate reactions were performed with the MEK1 substrate and ATP as a blank control. ARAF, kinase reactions were rigorously the same with the exception that kinase concentration was raised to 3.75 nM (cat #1768-0000-1; Reaction Biology).
(§3) For compound treatment, 5 μL/well of test substance solution are placed in a 384-well proxyplate (Perkin Elmer) and mixed with 2× concentrated kinase reactions. The dilution series is selected so that nine concentrations cover a range from 100 nM to 0.01 nM. […] The final concentration of DMSO in the assay is set at 0.05%.
(§4) BRAF and CRAF kinase reactions were carried out for a total of 2 hours at 30° C. and then stopped by ½ dilution in ADP-Glo Reagent (cat #V9102; Promega; part V912C). Reactions were then incubated for 1 h at room temperature before addition of one volume of Kinase Detection Reagent (cat #V9102; Promega; part V917A). Plates were then equilibrated at room temperature for 30 minutes before detection of luminescence on a Synergy Neo2 plate reader (Biotek). The effect of each compound dilution on BRAF and CRAF kinase activity was expressed as % inhibition and calculated as follows. First, the internal 100% inhibition control (average of luminescence in kinase reactions comprising kinase dead MEK1 substrate alone) was subtracted from each data point. The average of DMSO (vehicle) controls (set as 0% inhibition) was established and used to calculate % inhibition:
(§5) IC50 values were obtained by plotting the kinase inhibition values and fitting the dose-activity curves using a log(agonist) versus response−variable slope (four parameters) function using either GraphPadPrism (V7.0) or Dotmatics Screening Ultra platform. Standards included in the ARAF kinase assay were Belvarafenib (MedChem Express cat #HY-109080; CAS #1446113-23-0), LXH254 (MedChem Express cat #HY-112089; CAS #1800398-38-2) and BGB283 (cat #HY-18957; CAS #1446090-79-4).

[3] = molecular target: CRAF (Homo sapiens, UniProt P04049); test: CRAF kinase activity assay (ADP-Glo); format: biochemical
Procedure: as §1, §2, §3, §4, §5

CRAF, sequence (P04049 whole entry): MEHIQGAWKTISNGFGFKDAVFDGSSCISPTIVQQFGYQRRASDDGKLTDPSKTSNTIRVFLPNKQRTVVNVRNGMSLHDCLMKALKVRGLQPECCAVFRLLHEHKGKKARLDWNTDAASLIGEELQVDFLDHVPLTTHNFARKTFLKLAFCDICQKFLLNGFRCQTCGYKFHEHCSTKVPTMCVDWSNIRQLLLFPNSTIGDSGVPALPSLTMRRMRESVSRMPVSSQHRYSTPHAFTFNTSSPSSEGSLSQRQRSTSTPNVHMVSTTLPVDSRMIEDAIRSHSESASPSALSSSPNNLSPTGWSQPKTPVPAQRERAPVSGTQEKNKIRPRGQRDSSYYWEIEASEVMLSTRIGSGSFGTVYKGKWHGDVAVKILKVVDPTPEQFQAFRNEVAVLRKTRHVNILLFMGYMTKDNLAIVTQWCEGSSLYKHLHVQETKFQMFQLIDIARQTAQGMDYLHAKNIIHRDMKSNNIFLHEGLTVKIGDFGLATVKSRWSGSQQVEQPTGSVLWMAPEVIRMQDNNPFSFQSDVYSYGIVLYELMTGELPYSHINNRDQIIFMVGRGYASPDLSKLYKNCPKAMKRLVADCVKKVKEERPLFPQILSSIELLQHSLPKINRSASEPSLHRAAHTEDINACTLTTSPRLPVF
T1 sequence (P15056 whole entry): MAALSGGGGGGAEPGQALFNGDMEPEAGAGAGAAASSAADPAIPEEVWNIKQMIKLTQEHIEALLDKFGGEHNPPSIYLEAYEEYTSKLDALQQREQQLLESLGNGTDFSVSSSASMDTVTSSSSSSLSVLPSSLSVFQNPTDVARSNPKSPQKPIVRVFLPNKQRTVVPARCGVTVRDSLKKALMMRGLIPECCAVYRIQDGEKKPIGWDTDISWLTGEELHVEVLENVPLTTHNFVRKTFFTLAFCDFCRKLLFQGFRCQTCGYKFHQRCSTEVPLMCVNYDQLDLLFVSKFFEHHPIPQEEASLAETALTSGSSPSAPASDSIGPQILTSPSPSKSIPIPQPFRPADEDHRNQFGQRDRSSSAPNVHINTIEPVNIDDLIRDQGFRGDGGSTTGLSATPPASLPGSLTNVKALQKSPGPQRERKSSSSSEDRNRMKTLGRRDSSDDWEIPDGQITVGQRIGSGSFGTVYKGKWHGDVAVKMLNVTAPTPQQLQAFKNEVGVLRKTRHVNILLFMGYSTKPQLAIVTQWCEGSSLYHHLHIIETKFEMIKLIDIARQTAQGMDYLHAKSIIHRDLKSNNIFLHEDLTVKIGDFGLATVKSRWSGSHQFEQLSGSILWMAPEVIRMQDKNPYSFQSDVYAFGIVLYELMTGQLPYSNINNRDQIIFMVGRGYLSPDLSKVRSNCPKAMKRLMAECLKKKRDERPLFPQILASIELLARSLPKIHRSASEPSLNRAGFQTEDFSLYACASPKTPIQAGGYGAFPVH

COc1ccc(S(=O)(=O)Nc2ccc(F)c(Nc3ncnc4cnc(SC)nc34)c2F)c(C)c1F [Example 91]
IC50 ([1]; Table 2): 1000 to 10000 nM | HCT116 (Ymin %) ([1]; Table 2): −8% | IC50 ([2]; Table 2): > 10 nM | IC50 ([3]; Table 2): 10 to 50 nM

Cc1c(F)cccc1S(=O)(=O)Nc1ccc(F)c(Nc2ncnc3cnc(-n4nnc5c(N)cccc54)nc23)c1F [Example 93]
IC50 ([1]; Table 3): < 500 nM | HCT116 (Ymin %) ([1]; Table 3): 1.3% | IC50 ([2]; Table 3): 1 to 10 nM | IC50 ([3]; Table 3): < 10 nM

Nc1cccc2c1nnn2-c1ncc2ncnc(Nc3c(F)ccc(NS(=O)(=O)c4cccc(Cl)c4Cl)c3F)c2n1 [Example 94]
IC50 ([1]; Table 3): < 500 nM | HCT116 (Ymin %) ([1]; Table 3): 7.7% | IC50 ([2]; Table 3): 1 to 10 nM | IC50 ([3]; Table 3): < 10 nM

Cc1c(F)cccc1S(=O)(=O)Nc1ccc(F)c(Nc2ncnc3cnc(-n4cc(S(=O)(=O)N5CCN(C)CC5)c5ccccc54)nc23)c1F [Example 96]
IC50 ([1]; Homo sapiens, HCT-116, Table 3): < 500 nM | IC50 ([2]; Table 3): < 1 nM | IC50 ([3]; Table 3): < 10 nM

Cc1c(F)cccc1S(=O)(=O)Nc1ccc(F)c(Nc2ncnc3cnc(-n4cc(C(=O)N(C)C)c5ccccc54)nc23)c1F [Example 97]
IC50 ([1]; Table 3): < 500 nM | HCT116 (Ymin %) ([1]; Table 3): −6.3% | IC50 ([2]; Table 3): < 1 nM | IC50 ([3]; Table 3): 10 to 50 nM

Cc1c(F)cccc1S(=O)(=O)Nc1ccc(F)c(Nc2ncnc3cnc(-n4cc(C(=O)N5CCN(C)CC5)c5ccccc54)nc23)c1F [Example 99]
HCT116 (Ymin %) ([1]; Table 3): (−3.6) % | IC50 ([2]; Table 3): < 1 nM | IC50 ([3]; Table 3): 10 to 50 nM

Cc1c(F)cccc1S(=O)(=O)Nc1ccc(F)c(Nc2ncnc3cnc(-n4cc(C(=O)N5CCOCC5)c5ccccc54)nc23)c1F [Example 100]
IC50 ([1]; Table 3): < 500 nM | HCT116 (Ymin %) ([1]; Table 3): 2.2% | IC50 ([2]; Table 3): < 1 nM | IC50 ([3]; Table 3): 10 to 50 nM

Cc1c(F)cccc1S(=O)(=O)Nc1ccc(F)c(Nc2ncnc3cnc(-n4cc(C(=O)N(C)CCO)c5ccccc54)nc23)c1F [Example 101]
IC50 ([1]; Table 3): < 500 nM | HCT116 (Ymin %) ([1]; Table 3): 3.5% | IC50 ([2]; Table 3): < 1 nM | IC50 ([3]; Table 3): < 10 nM

Cc1c(F)cccc1S(=O)(=O)Nc1ccc(F)c(Nc2ncnc3cnc(-n4cc(C(=O)N5CCC(O)CC5)c5ccccc54)nc23)c1F [Example 102]
IC50 ([1]; Table 3): 500 to 1000 nM | HCT116 (Ymin %) ([1]; Table 3): −9.5% | IC50 ([2]; Table 3): < 1 nM | IC50 ([3]; Table 3): < 10 nM

Cc1c(F)cccc1S(=O)(=O)Nc1ccc(F)c(Nc2ncnc3cnc(-n4cc(C(=O)N5CCC[C@H](O)C5)c5ccccc54)nc23)c1F [Example 103]
IC50 ([1]; Table 3): 500 to 1000 nM | HCT116 (Ymin %) ([1]; Table 3): −9.9% | IC50 ([2]; Table 3): < 1 nM | IC50 ([3]; Table 3): < 10 nM

Cc1c(F)cccc1S(=O)(=O)Nc1ccc(F)c(Nc2ncnc3cnc(-n4nc(C(=O)N5CCN(C)CC5)c5ccccc54)nc23)c1F [Example 104]
IC50 ([1]; Homo sapiens, HCT-116, Table 3): < 500 nM | IC50 ([2]; Table 3): < 1 nM | IC50 ([3]; Table 3): > 50 nM

Cc1c(F)cccc1S(=O)(=O)Nc1ccc(F)c(Nc2ncnc3cnc(-n4nc(C(=O)N(C)C)c5ccccc54)nc23)c1F [Example 105]
IC50 ([1]; Table 3): < 500 nM | HCT116 (Ymin %) ([1]; Table 3): −8.7% | IC50 ([2]; Table 3): 1 to 10 nM | IC50 ([3]; Table 3): > 50 nM

Cc1c(F)cccc1S(=O)(=O)Nc1ccc(F)c(Nc2ncnc3cnc(-n4nc(C(=O)N(C)Cc5ccncc5)c5ccccc54)nc23)c1F [Example 106]
IC50 ([1]; Table 3): < 500 nM | HCT116 (Ymin %) ([1]; Table 3): −2.3% | IC50 ([2]; Table 3): < 1 nM | IC50 ([3]; Table 3): 10 to 50 nM

Cc1c(F)cccc1S(=O)(=O)Nc1ccc(F)c(Nc2ncnc3cnc(-n4nc(C(=O)N(C)CCO)c5ccccc54)nc23)c1F [Example 107]
IC50 ([1]; Table 3): 500 to 1000 nM | HCT116 (Ymin %) ([1]; Table 3): −5.2% | IC50 ([2]; Table 3): < 1 nM | IC50 ([3]; Table 3): 10 to 50 nM

Cc1c(F)cccc1S(=O)(=O)Nc1ccc(F)c(Nc2ncnc3cnc(-n4nc(C(=O)N5CCC(O)CC5)c5ccccc54)nc23)c1F [Example 108]
IC50 ([1]; Table 3): 1000 to 10000 nM | HCT116 (Ymin %) ([1]; Table 3): −7.0% | IC50 ([3]; Table 3): 10 to 50 nM

Cc1c(F)cccc1S(=O)(=O)Nc1ccc(F)c(Nc2ncnc3cnc(-n4nc(C(=O)N5CCC[C@H](O)C5)c5ccccc54)nc23)c1F [Example 109]
IC50 ([1]; Table 3): < 500 nM | HCT116 (Ymin %) ([1]; Table 3): −6.5% | IC50 ([2]; Table 3): < 1 nM | IC50 ([3]; Table 3): 10 to 50 nM

Cc1c(F)cccc1S(=O)(=O)Nc1ccc(F)c(Nc2ncnc3cnc(-n4nc(C(=O)N5CCOCC5)c5ccccc54)nc23)c1F [Example 110]
IC50 ([1]; Table 3): < 500 nM | HCT116 (Ymin %) ([1]; Table 3): −3.7% | IC50 ([2]; Table 3): < 1 nM | IC50 ([3]; Table 3): 10 to 50 nM

COc1ccc(S(=O)(=O)Nc2ccc(F)c(Nc3ncnc4cnc(-n5cnc6c(N)cccc65)nc34)c2F)c(C)c1F [Example 111]
IC50 ([1]; Table 3): < 500 nM | HCT116 (Ymin %) ([1]; Table 3): −8.1% | IC50 ([2]; Table 3): 1 to 10 nM | IC50 ([3]; Table 3): < 10 nM

Cc1c(F)cccc1S(=O)(=O)Nc1ccc(F)c(Nc2ncnc3cnc(-n4cc(S(=O)(=O)N(C)Cc5ccncc5)c5ccccc54)nc23)c1F [Example 113]
IC50 ([1]; Table 3): 500 to 1000 nM | HCT116 (Ymin %) ([1]; Table 3): −7.0% | IC50 ([2]; Table 3): 1 to 10 nM | IC50 ([3]; Table 3): 10 to 50 nM

COc1ccc(S(=O)(=O)Nc2ccc(F)c(Nc3ncnc4cnc(-n5cnc6ccccc65)nc34)c2F)c(C)c1Cl [Example 115]
IC50 ([1]; Table 3): < 500 nM | HCT116 (Ymin %) ([1]; Table 3): 2% | IC50 ([2]; Table 3): 1 to 10 nM | IC50 ([3]; Table 3): 10 to 50 nM

COc1ccc(S(=O)(=O)Nc2ccc(F)c(Nc3ncnc4cnc(-n5cnc6ccccc65)nc34)c2F)c(C)c1F [Example 116]
IC50 ([1]; Table 3): < 500 nM | HCT116 (Ymin %) ([1]; Table 3): −1% | IC50 ([2]; Table 3): 1 to 10 nM | IC50 ([3]; Table 3): > 50 nM

COc1ccc(S(=O)(=O)Nc2ccc(F)c(Nc3ncnc4cnc(-n5nnc6ccccc65)nc34)c2F)c(C)c1Cl [Example 117]
IC50 ([1]; Table 3): 1000 to 10000 nM | HCT116 (Ymin %) ([1]; Table 3): −1% | IC50 ([2]; Table 3): > 10 nM | IC50 ([3]; Table 3): 10 to 50 nM

COc1ccc(S(=O)(=O)Nc2ccc(F)c(Nc3ncnc4cnc(-n5nnc6ccccc65)nc34)c2F)c(C)c1F [Example 118]
IC50 ([1]; Table 3): 1000 to 10000 nM | HCT116 (Ymin %) ([1]; Table 3): −14% | IC50 ([2]; Table 3): > 10 nM | IC50 ([3]; Table 3): 10 to 50 nM

Cc1c(F)cccc1S(=O)(=O)Nc1ccc(F)c(Nc2ncnc3cnc(-n4nnc5ccccc54)nc23)c1F [Example 121]
IC50 ([1]; Table 3): 1000 to 10000 nM | HCT116 (Ymin %) ([1]; Table 3): −4% | IC50 ([2]; Table 3): 1 to 10 nM | IC50 ([3]; Table 3): < 10 nM

Cc1c(Cl)cccc1S(=O)(=O)Nc1ccc(F)c(Nc2ncnc3cnc(-n4nnc5ccccc54)nc23)c1F [Example 124]
IC50 ([1]; Table 3): 1000 to 10000 nM | HCT116 (Ymin %) ([1]; Table 3): −9% | IC50 ([2]; Table 3): 1 to 10 nM | IC50 ([3]; Table 3): < 10 nM

Cc1c(Cl)cccc1S(=O)(=O)Nc1ccc(F)c(Nc2ncnc3cnc(-n4cnc5ccccc54)nc23)c1F [Example 127]
IC50 ([1]; Table 3): < 500 nM | HCT116 (Ymin %) ([1]; Table 3): 0% | IC50 ([2]; Table 3): 1 to 10 nM | IC50 ([3]; Table 3): < 10 nM
